In patent US20250340944A1, “METHOD TO ASSIST IN SCREENING FOR LATE RECURRENCE OF ER+ BREAST CANCER, AND METHOD FOR SCREENING THERAPEUTIC DRUGS” (JAPANESE FOUNDATION FOR CANCER RESEARCH, priority 2022, published 2025):

Legend:
Type in all cases: cell-based
[1] = system: HCC1428-LTED cells; assay: FACS analysis of CD44/CD24 expression (breast cancer stem cells) after LNA knock-down of ELEANOR2; settings: LNA transfected with RNAiMAX, analysis after 48 hours
Experimental: ELEANOR2 RNA which is most abundant in ELEANORS was knocked down by LNA, and CD44/CD24 expression was analyzed by FACS (FIG. 5B). The LNA below was transfected using RNAiMAX (Invitrogen), and analysis was performed after 48 hours.

[2] = system: CD44 mRNA; assay: RT-qPCR of CD44 mRNA after suppression of ELEANOR expression by LNAs; settings: HCC1428-LTED cells, ELEANOR knock-down by LNA
Experimental: FIG. 5D is a graph showing the results of RT-qPCR analysis of expressions of ESR1 and CD44 when ELEANORS are knocked down by ELEANOR2 LNA and pa-ELEANOR LNA.
Expressions of ESR1, ELEANORS, and CD44 in the HC1428 and HC1428-LTED cells were analyzed by RT-qPCR using the primers below. In the RT-qPCR, total RNA was purified from cultured cells using NucleoSpin RNA/protein kit (MACHEREY-NAGEL) and was reverse-transcribed by ReverTra Ace qPCR RT Master Mix (TOYOBO Co., Ltd.). The RT-qPCR was performed by ABI Prism 7500 (ABI inc.) using SYBR Green.
Subsequently, the ELEANOR expression was suppressed by LNAs of SEQ ID NO: 1 and SEQ ID NO: 41 specific to ELEANORS, and whether the CD44 expression is changed or not was investigated. The expression of CD44 mRNA was decreased by knock-down of these ELEANORS (FIG. 5D).

[3] = system: HCC1428-LTED cells; assay: FACS analysis of CD44 expression on the cell surface after ELEANOR knock-down
Experimental: The maximum value in the analysis is defined as 100.
Whether the CD44 expression is changed also at the protein level was investigated. Comparative analysis of CD44 expression between HCC1428 and HCC1428-LTED cells was performed. The LNA of SEQ ID NO: 1 that suppresses ELEANOR expression and siRNA (Thermo Fisher Scientific) that suppresses CD44 expression were introduced into HCC1428-LTED cells, and the CD44 expression was analyzed by Western blotting (FIG. 5E). […] Furthermore, an ELEANOR was knocked down by introducing the LNA of SEQ ID NO: 1 into HCC1428-LTED cells, and whether the CD44 expression on the cell surface is also changed or not was analyzed by FACS.

Substance | number of breast cancer stem cells (CD44+/CD24-/low) [1] | expression of CD44 mRNA [2] | number of CD44+ cells [3]
ELEANOR2-LNA: LNA that knocks down ELEANOR2 RNA, sequence TTTGGCCACATTGGAA (SEQ ID NO: 1) (LNA-modified antisense, pattern not given here) | significantly decreased | decreased | decreased
pa-ELEANOR-LNA: LNA specific to pa-ELEANOR, sequence GTGCCAGACTCCGATA (SEQ ID NO: 41) (LNA-modified antisense, pattern not given here) |  | decreased | 
